Patent US10695427B2, “Shape memory particles for biomedical uses” (The Johns Hopkins University, priority 2015, dated 2020)

What was measured:
MDA-MB-231 cells [1] = test: Paclitaxel/digoxin treatment of TNBC orthografts (tumor volume, Aldefluor assay, RT-qPCR); format: in vivo, mice; conditions: tumors harvested on day 12; for percentage of ALDH+ cells (Aldefluor assay): compared with saline treatment
Procedure: MDA-MB-231 cells were implanted into the mammary fat pad of female severe combined immunodeficiency (Scid) mice. Mice were randomized to four groups, which were treated with: saline (control, C); digoxin (D); paclitaxel (P); or paclitaxel and digoxin (P/D). […] Tumors were harvested on day 12 for Aldefluor assay to determine the percentage of aldehyde dehydrogenase-expressing (ALDH^+) BCSCs (FIG. 17B) and RT-qPCR assays to quantify the expression of mRNAs encoding interleukin (IL) 8, IL-6, and the multidrug drug resistance protein MDR1 (FIG. 17C).

MDA-MB-231 cells [2] = test: Gemcitabine/digoxin combination therapy, tumor relapse; format: in vivo, mice
Procedure: MDA-MB-231 cells were implanted into the mammary fat pad of female Scid mice. When a tumor was palpable (day 1), the mice were randomized to three groups, which were treated with intraperitoneal injections of: saline, gemcitabine [20 mg/kg on days 5, 10, 15, 20, and 25 (arrows)], or gemcitabine and digoxin (2 mg/kg on days 1-25). Tumor volumes were determined every 2-3 d and mean±SEM (n=3) are shown.
To examine the effect of HIF inhibition on tumor relapse, MDA-MB-231 cells were implanted into the mammary fat pad of Scid mice. When the tumor became palpable, the mice were randomized to receive intraperitoneal injections of saline, gemcitabine (20 mg/kg on days 5, 10, 15, 20, and 25), or the combination of digoxin (2 mg/kg on days 1-25) and gemcitabine.

Structure (SMILES)	expression of IL-6, IL-8, and MDR1 mRNA (MDA-MB-231 cells [1]; RT-qPCR)	percentage of ALDH+ cells (Aldefluor assay) (MDA-MB-231 cells [1])	tumor growth during treatment (MDA-MB-231 cells [2]; intraperitoneal, gemcitabine 20 mg/kg days 5, 10, 15, 20, 25, digoxin 2 mg/kg days 1-25, Scid mice)	tumor growth after treatment was discontinued (relapse) (MDA-MB-231 cells [2]; up to day 32, 7 days after treatment was discontinued)
CC(=O)O[C@H]1C(=O)[C@@]2(C)[C@H]([C@H](OC(=O)c3ccccc3)[C@]3(O)C[C@H](OC(=O)[C@H](O)[C@@H](NC(=O)c4ccccc4)c4ccccc4)C(C)=C1C3(C)C)[C@]1(OC(C)=O)CO[C@@H]1C[C@@H]2O [paclitaxel]	increased	significantly increased		
Nc1ccn([C@@H]2O[C@H](CO)[C@@H](O)C2(F)F)c(=O)n1 [gemcitabine]			markedly reduced tumor growth	rapid tumor growth resumed
C[C@H]1O[C@@H](O[C@H]2[C@@H](O)C[C@H](O[C@H]3[C@@H](O)C[C@H](O[C@H]4CC[C@@]5(C)[C@H](CC[C@@H]6[C@@H]5C[C@@H](O)[C@]5(C)[C@@H](C7=CC(=O)OC7)CC[C@]65O)C4)O[C@@H]3C)O[C@@H]2C)C[C@H](O)[C@@H]1O [digoxin]		significantly decreased		
